Reference: patent US20070098665A1, “Effects of skin surface temperature on the epidermal permeability barrier homeostasis” (Shiseido Company, Ltd., priority 2005, published 2007)

Experiments:
hairless mice skin [1] = test: Barrier recovery (TEWL) after tape stripping with topical application of reagent; assay type: in vivo, hairless mice (HR-1); settings: for effect on barrier recovery (percent recovery of TEWL): topical, 100 μl aqueous solution containing 1 μM of reagent immediately after tape stripping, TEWL at 1, 3 and 6 hours, vs water control, FIG. 3
Method: All experiments were performed on 7-10-week old male hairless mice (HR-1, Hoshino, Japan). All procedures for measuring of skin barrier function, disrupting the barrier and applying the sample were carried out under anesthesia. All experiments were approved by the Animal Research Committee of the Shiseido Research Center in accordance with the National Research Council Guide (National Research Council 1996). Human skin experiments were carried out on the inner forearm of healthy males who gave their informed consent. 4 alpha-phorbol 12,13-[…] (4 alpha-PDD) and Rutenium-Red were purchased from Sigma (Sigma, St.Louis, Mich. USA). Capsaicin, capsazepine, and 2-aminoethoxydiphenyl borate (2-APB) were purchased from Tocris (TOCRIS, Bristol, UK). Camphor was purchased Wako (Wako, Osaka, Japan). Capsaicin is an agonist of TRPV1 and capsazepine is an antagonist of TRPV1 (Caterina et al. 1997). Both 2-APB and camphor are activator of TRPV3 (Chung et al. 2003)(Moquich et al. 2005). 4 alpha-PDD is an activator of TRPV4 and Rutenium-Red is a blocker of TRPV4 (Watanabe et al. 2002).
(§1) Permeability barrier function was evaluated by measurement of transepidermal water loss (TEWL) with an electric water analyzer, as described previously (Denda et al. 1998). For barrier recovery experiments, both sides of flank skin were treated with repeated tape stripping procedure until the TEWL reached 7-10 mg per cm^2 per h, as described previously (Denda et al. 1998). Immediately after barrier disruption, 100 μl of an aqueous solution containing 1 μM of reagent or water alone (control) was applied to the treated area. […] The areas were covered with plastic membranes for 15 min and then the membranes were removed. Two points in one side of flank were measured and 4-8 mice were used to evaluate the effects of each treatment. We always disrupted the barrier within 7:00 AM to 8:00 AM and carried out the following measurements of the barrier repair to avoid the deviation of the repair rate due to the influence of circadian rhythm (Denda et al. 2000). TEWL was then measured over the same sites at 1, 3 and 6 hours after barrier disruption. The barrier recovery results are expressed as percent of recovery, because of variations from day to day in the extent of barrier disruption. In each animal, the percentage of recovery was calculated by the following formula: (TEWL immediately after barrier disruption−TEWL at indicated time point)/(TEWL immediately after barrier disruption−baseline TEWL)×100%. All experiments were performed on 7 to 10-week-old male hairless mice (HR-1, Hoshino, Japan). All procedures of the measurement of skin barrier function, disruption of the barrier and application of test sample were carried out under anesthesia.
The results are expressed as the mean ± SD. Statistical differences between two groups were determined by a two-tailed Student's t-test. In the case of more than 2 groups, differences were determined by ANOVA test (Fisher's protected least significant difference).

hairless mice skin [2] = test: Barrier recovery (TEWL) after tape stripping with applied heat plus topical reagent; assay type: in vivo, hairless mice (HR-1); settings: topical application, FIG. 4
Method: as §1, with “We always disrupted the barrier within 7:00 AM to 8:00 AM and carried out the following measurements of the barrier repair to avoid the deviation of the repair rate due to the influence of circadian rhythm (Denda et al. 2000).” left out, “All experiments were performed on 7 to 10-week-old male hairless mice (HR-1, Hoshino, Japan). All procedures of the measurement of skin barrier function, disruption of the barrier and application of test sample were carried out under anesthesia.” left out
The results are expressed as the mean ± SD. Statistical differences between two groups were determined by a two-tailed Student's t-test. […]

## Rutenium-Red
Hairless mice skin [1]
  effect on barrier recovery (percent recovery of TEWL): delayed the recovery
Hairless mice skin [2]; heat 36° C. applied for one hour after tape stripping
  effect on the acceleration of the barrier recovery by heat 36° C.: blocked the acceleration of the barrier recovery by heat 36 °C

## CCCCCCCCCC(=O)O[C@@H]1[C@@H](C)[C@@]2(O)[C@@H](C=C(CO)C[C@@]3(O)C(=O)C(C)=C[C@@H]23)[C@@H]2C(C)(C)[C@]12OC(=O)CCCCCCCCC [4 alpha-PDD, 4 alpha-phorbol 12,13-didecanoate]
Hairless mice skin [1]
  effect on barrier recovery (percent recovery of TEWL): accelerated the barrier recovery

## COc1cc(CNC(=O)CCCC/C=C/C(C)C)ccc1O [capsaicin, Capsaicin]
Hairless mice skin [1]
  effect on barrier recovery (percent recovery of TEWL): delayed the barrier recovery

## NCCOB(c1ccccc1)c1ccccc1 [2-aminoethoxydiphenyl borate]
Hairless mice skin [1]
  effect on barrier recovery (percent recovery of TEWL): did not affect the barrier recovery rate

## CC12CCC(CC1=O)C2(C)C (stereo not drawn) [camphor, Camphor]
Hairless mice skin [1]
  effect on barrier recovery (percent recovery of TEWL): did not affect the barrier recovery rate

## Oc1cc2c(cc1O)CN(C(=S)NCCc1ccc(Cl)cc1)CCC2 [capsazepine]
Hairless mice skin [1]; topical application on hairless mice skin after tape stripping, as worded in the summary b8
  effect on the delay of barrier recovery after capsaicin application: the delay was blocked
Hairless mice skin [1]
  effect on barrier recovery (percent recovery of TEWL): accelerated the barrier repair
Hairless mice skin [2]; heat 42° C. applied for one hour after tape stripping
  effect on the delay of the barrier recovery by heat 42° C.: blocked the delay of the barrier recovery by heat 42 °C
